Structures can show the parent of a compound that is named as a salt.
target: T1, human IKK-β (Homo sapiens, UniProt O14920); assay: IKK-β kinase inhibitory assay; type: biochemical; conditions: compounds as yielded by solid phase synthesis, purity about 40 to 90%, read-out: In vitro activity grade (In vitro IC50)
T1 construct: A cDNA fragment encoding human IKK-β open reading frame was generated by PCR; His tag (from pcDNA3.1/His C); made in house; host or cells: Sf21 insect cells (baculovirus); substrate made in E. coli
T1 sequence (O14920 1-756): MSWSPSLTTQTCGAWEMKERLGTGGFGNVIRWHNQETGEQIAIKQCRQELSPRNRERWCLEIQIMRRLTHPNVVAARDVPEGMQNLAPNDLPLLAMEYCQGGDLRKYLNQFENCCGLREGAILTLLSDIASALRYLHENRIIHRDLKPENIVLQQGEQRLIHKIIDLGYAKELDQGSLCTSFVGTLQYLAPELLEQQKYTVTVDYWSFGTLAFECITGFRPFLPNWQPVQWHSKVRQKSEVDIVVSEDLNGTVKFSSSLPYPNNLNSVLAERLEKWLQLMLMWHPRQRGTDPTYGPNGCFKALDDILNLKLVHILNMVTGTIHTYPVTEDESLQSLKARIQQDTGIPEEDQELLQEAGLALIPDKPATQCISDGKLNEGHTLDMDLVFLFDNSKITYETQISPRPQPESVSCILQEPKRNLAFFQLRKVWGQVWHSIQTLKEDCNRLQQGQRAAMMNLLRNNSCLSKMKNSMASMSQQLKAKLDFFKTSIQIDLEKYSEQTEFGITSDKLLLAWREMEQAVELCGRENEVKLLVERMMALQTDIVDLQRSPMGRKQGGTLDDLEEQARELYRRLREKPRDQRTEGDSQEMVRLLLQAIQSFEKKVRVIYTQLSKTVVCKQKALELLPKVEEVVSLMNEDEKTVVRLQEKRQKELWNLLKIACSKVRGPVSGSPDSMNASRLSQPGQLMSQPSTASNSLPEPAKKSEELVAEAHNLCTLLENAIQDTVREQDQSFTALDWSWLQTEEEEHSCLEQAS
In short: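 Radiometric read-out: streptavidin capture of 33P-labelled bio-GST-IκBα(1-54), 0.2 μM, after a 2 h room-temperature reaction started with ATP/[γ-33P]ATP. Enzyme was recombinant His-tagged human IKK-β expressed in Sf21 insect cells, used at 0.6 μg/ml in Tris-HCl pH 7.6/MgCl2 kinase buffer. Compounds added in 2.5% DMSO.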

SMILES | IC50 [nM]
N#Cc1c(C2CCNCC2)cc(-c2ccccc2O)nc1N [Example 1-13] | < 500
N#Cc1c(C2CCCCN2)cc(-c2ccccc2O)nc1N (centres unmarked) [Example 1-14] | 500 to 2000
N#Cc1c(C2CNCCN2)cc(-c2ccccc2O)nc1N (centres unmarked) [Example 1-15] | 500 to 2000
Cc1cccc(-c2cc(C3CCCNC3)c(C#N)c(N)n2)c1O (centres unmarked) [Example 1-17] | 500 to 2000
N#Cc1c(C2CCCNC2)cc(-c2ccc(O)cc2O)nc1N (centres unmarked) [Example 1-18] | 500 to 2000
N#Cc1c(C2CCCNC2)cc(-c2cccc(F)c2O)nc1N (centres unmarked) [Example 1-19] | < 500
N#Cc1c(C2CCCNC2)cc(-c2cccc(Cl)c2O)nc1N (centres unmarked) [Example 1-20] | < 500
Cc1cccc(O)c1-c1cc(C2CCCNC2)c(C#N)c(N)n1 (centres unmarked) [Example 1-21] | 2000 to 10000
N#Cc1c(C2CCC(N)CC2)cc(-c2ccccc2O)nc1N (centres unmarked) [Example 1-22] | < 500
N#Cc1c(C2CCCC(N)C2)cc(-c2ccccc2O)nc1N (centres unmarked) [Example 1-23] | < 500
N#Cc1c([C@@H](N)Cc2ccccc2)cc(-c2ccccc2O)nc1N [Example 1-25] | < 500
COc1ccc(C[C@H](N)c2cc(-c3ccccc3O)nc(N)c2C#N)cc1 [Example 1-26] | < 500
CCCC[C@H](N)c1cc(-c2ccccc2O)nc(N)c1C#N [Example 1-28] | < 500
N#Cc1c([C@@H](N)CCc2ccccc2)cc(-c2ccccc2O)nc1N [Example 1-29] | 500 to 2000
N#Cc1c([C@@H](N)Cc2ccc(F)cc2)cc(-c2ccccc2O)nc1N [Example 1-30] | < 500
N#Cc1c([C@@H]2CCCN2)cc(-c2ccccc2O)nc1N [Example 1-31] | 500 to 2000
C[C@H](N)c1cc(-c2ccccc2O)nc(N)c1C#N [Example 1-32] | < 500
CC(C)[C@H](N)c1cc(-c2ccccc2O)nc(N)c1C#N [Example 1-33] | < 500
N#Cc1c([C@H](N)Cc2ccccc2)cc(-c2ccccc2O)nc1N [Example 1-34] | < 500
N#Cc1c(CC(N)c2ccccc2)cc(-c2ccccc2O)nc1N (centres unmarked) [Example 1-35] | < 500
CC(N)Cc1cc(-c2ccccc2O)nc(N)c1C#N (centres unmarked) [Example 1-36] | < 500
N#Cc1c(CCN)cc(-c2ccccc2O)nc1N [Example 1-37] | < 500
N#Cc1c(C2CCC(C(=O)O)CC2)cc(-c2ccccc2O)nc1N (centres unmarked) [Example 1-38] | < 500
CCc1cc(-c2ccccc2O)nc(N)c1C#N [Example 1-39] | 2000 to 10000

SMILES | IC50 [nM]
N#Cc1c([C@H](Cc2ccccc2)NC(=O)CCN2CCCCC2)cc(-c2ccccc2O)nc1N [Example 1-40] | 500 to 2000
N#Cc1c(C2CCCN(C(=O)CCN3CCCCC3)C2)cc(-c2ccccc2O)nc1N (centres unmarked) [Example 1-41] | 500 to 2000
CS(=O)(=O)N1CCCC(c2cc(-c3ccccc3O)nc(N)c2C#N)C1 (centres unmarked) [Example 1-42] | 2000 to 10000
CCCN(CCC)C1CCCC(c2cc(-c3ccccc3O)nc(N)c2C#N)C1 (centres unmarked) [Example 1-43] | < 500
N#Cc1c(CCO)cc(-c2ccccc2O)nc1N [Example 1-44] | 500 to 2000
Cc1cccc(COc2cccc(O)c2-c2cc(C3CCCNC3)c(C#N)c(N)n2)c1 (centres unmarked) [Example 2-07] | < 500
Cc1ccc(COc2cccc(O)c2-c2cc(C3CCCNC3)c(C#N)c(N)n2)cc1 (centres unmarked) [Example 2-08] | < 500
N#Cc1c(C2CCCNC2)cc(-c2c(O)cccc2OCc2cccc(C(F)(F)F)c2)nc1N (centres unmarked) [Example 2-09] | < 500
N#Cc1c(C2CCCNC2)cc(-c2c(O)cccc2OCc2ccc(C(F)(F)F)cc2)nc1N (centres unmarked) [Example 2-10] | < 500
N#Cc1c(C2CCCNC2)cc(-c2c(O)cccc2OCc2cccc(Br)c2)nc1N (centres unmarked) [Example 2-11] | < 500
N#Cc1c(C2CCCNC2)cc(-c2c(O)cccc2OCc2ccccc2[N+](=O)[O-])nc1N (centres unmarked) [Example 2-12] | < 500
N#Cc1c(C2CCCNC2)cc(-c2c(O)cccc2OCc2cccc([N+](=O)[O-])c2)nc1N (centres unmarked) [Example 2-13] | < 500
N#Cc1c(C2CCCNC2)cc(-c2c(O)cccc2OCc2ccc([N+](=O)[O-])cc2)nc1N (centres unmarked) [Example 2-14] | < 500
N#Cc1cccc(COc2cccc(O)c2-c2cc(C3CCCNC3)c(C#N)c(N)n2)c1 (centres unmarked) [Example 2-15] | < 500
N#Cc1ccc(COc2cccc(O)c2-c2cc(C3CCCNC3)c(C#N)c(N)n2)cc1 (centres unmarked) [Example 2-16] | < 500
N#Cc1c(C2CCCNC2)cc(-c2c(O)cccc2OCc2ccccc2Cl)nc1N (centres unmarked) [Example 2-17] | < 500
N#Cc1c(C2CCCNC2)cc(-c2c(O)cccc2OCc2cccc(Cl)c2)nc1N (centres unmarked) [Example 2-18] | < 500
N#Cc1c(C2CCCNC2)cc(-c2c(O)cccc2OCc2ccc(Cl)cc2)nc1N (centres unmarked) [Example 2-19] | < 500
N#Cc1c(C2CCCNC2)cc(-c2c(O)cccc2OCc2c(Cl)cccc2Cl)nc1N (centres unmarked) [Example 2-20] | < 500
N#Cc1c(C2CCCNC2)cc(-c2c(O)cccc2OCc2ccc3ccccc3c2)nc1N (centres unmarked) [Example 2-21] | < 500
N#Cc1c(C2CCCNC2)cc(-c2c(O)cccc2OCCC2CCCCC2)nc1N (centres unmarked) [Example 2-61] | < 500
N#Cc1c(C2CCCNC2)cc(-c2c(O)cccc2OCC2CCC2)nc1N (centres unmarked) [Example 2-62] | < 500
CC(C)CCCOc1cccc(O)c1-c1cc(C2CCCNC2)c(C#N)c(N)n1 (centres unmarked) [Example 2-63] | < 500
CCCCCCCOc1cccc(O)c1-c1cc(C2CCCNC2)c(C#N)c(N)n1 (centres unmarked) [Example 2-64] | < 500

SMILES | IC50 [nM]
N#Cc1c(C2CCCNC2)cc(-c2c(O)cccc2OCC2CC2)nc1N (centres unmarked) [Example 2-65] | < 500
CC(C)CCCOc1cccc(O)c1-c1cc(C2CCNCC2)c(C#N)c(N)n1 [Example 2-66] | < 500
CCCOc1cccc(O)c1-c1cc(C2CCNCC2)c(C#N)c(N)n1 [Example 2-67] | < 500
N#Cc1c(C2CCNCC2)cc(-c2c(O)cccc2OCC2CCC2)nc1N [Example 2-68] | < 500
CCCCCOc1cccc(O)c1-c1cc(C2CCNCC2)c(C#N)c(N)n1 [Example 2-69] | < 500
N#Cc1c(C2CCNCC2)cc(-c2c(O)cccc2OCCC2CCCCC2)nc1N [Example 2-70] | < 500
CC(C)COc1cccc(O)c1-c1cc(C2CCNCC2)c(C#N)c(N)n1 [Example 2-71] | < 500
CCCCCCCOc1cccc(O)c1-c1cc(C2CCNCC2)c(C#N)c(N)n1 [Example 2-73] | < 500
C=CCOc1cccc(O)c1-c1cc(C2CCNCC2)c(C#N)c(N)n1 [Example 2-74] | < 500
CCOc1cccc(O)c1-c1cc(C2CCNCC2)c(C#N)c(N)n1 [Example 2-75] | < 500
CCCCCCOc1cccc(O)c1-c1cc(C2CCNCC2)c(C#N)c(N)n1 [Example 2-76] | < 500
CC(C)(C)C(=O)COc1cccc(O)c1-c1cc(C2CCCNC2)c(C#N)c(N)n1 (centres unmarked) [Example 2-77] | < 500
CC(C)(C)C(=O)COc1cccc(O)c1-c1cc(C2CCNCC2)c(C#N)c(N)n1 [Example 2-78] | < 500
N#Cc1c(C2CCCNC2)cc(-c2c(O)cccc2OCC2CCCCO2)nc1N (centres unmarked) [Example 2-79] | < 500
N#Cc1c(C2CCCNC2)cc(-c2c(O)cccc2OCC2CCCO2)nc1N (centres unmarked) [Example 2-80] | < 500
N#Cc1c(C2CCCNC2)cc(-c2c(O)cccc2OCC2CCCO2)nc1N (centres unmarked) [Example 2-81] | < 500
N#Cc1c(C2CCNCC2)cc(-c2c(O)cccc2OCC2CCCO2)nc1N (centres unmarked) [Example 2-82] | < 500
N#Cc1c(C2CCCNC2)cc(-c2c(O)cccc2OCCN2CCCCC2)nc1N (centres unmarked) [Example 2-83] | 500 to 2000
N#Cc1c(C2CCCNC2)cc(-c2c(O)cccc2OCCN2CCOCC2)nc1N (centres unmarked) [Example 2-84] | < 500
CN(C)CCOc1cccc(O)c1-c1cc(C2CCCNC2)c(C#N)c(N)n1 (centres unmarked) [Example 2-85] | 500 to 2000
N#Cc1c(C2CCCNC2)cc(-c2c(O)cccc2OCCN2CCCCCC2)nc1N (centres unmarked) [Example 2-86] | 2000 to 10000
N#Cc1c(C2CCCNC2)cc(-c2c(O)cccc2OCCN2CCCC2)nc1N (centres unmarked) [Example 2-87] | 2000 to 10000
CCOC(=O)N1Cc2c(C3CCCNC3)cc(-c3c(O)cccc3OCC3CC3)nc2NC1=O (centres unmarked) [Example 24-2, ethyl 7-[2-(cyclopropylmethoxy)-6-hydroxyphenyl]-2-oxo-5-(3-piperidinyl)-1,4-dihydropyrido[2,3-d]pyrimidine-3(2H)-carboxylate hydrochloride] | < 500

Source: US6984649B1, “Pyridine derivatives” (Bayer Aktiengesellschaft, priority 2000, dated 2006)
